The source of these data is the Deep4Chem optical property database.

This series in a line: solvent given as SMILES.

“And” between values parts separate entries of the source, which are not always exact repeats. Equal entries are not always repeated.

Where the note is “in Cc1ccccc1”, `O=Cc1nc2ccc(C#Cc3ccc(N(c4ccc(C#Cc5ccc6nc(C=O)sc6c5)cc4)c4ccc(C#Cc5ccc6nc(C=O)sc6c5)cc4)cc3)cc2s1` displayed an absorption maximum of 414 nm.
On to `[BH3-][P+]1(c2ccccc2)c2ccccc2-c2sc3ccccc3c21` (stereo not given), for which the absorption maximum came out at 324 nm (in C1CCCCC1), 323 nm (in CC#N), 323 nm (in CCO) and 325 nm (in ClCCl).
Compound `CCCCN(CCCC)c1ccc(C#Cc2cc(C#Cc3ccc(C#N)cc3)c(C#Cc3ccc(C#N)cc3)cc2C#Cc2ccc(N(CCCC)CCCC)cc2)cc1` came in with an absorption maximum (in ClCCl) of 416 nm.
As for `COc1cc2c(cc1-c1ccc(N(C)C)cc1)Cc1c3c(c4c(c1-2)-c1cc(OC)c(-c2ccc(N(C)C)cc2)cc1C4)C(=O)N(CCC(C)C)C3=O`, the absorption maximum (in C1CCOC1) was determined as 440 nm.
The compound `COc1ccsc1-c1ccc(-c2ccc(-c3sccc3OC)s2)s1` showed an absorption maximum (in CCCCCCCCCCCCCC) of 409 nm.
Regarding `N#Cc1ccc(-n2c(-c3ccc(-c4ccc(N(c5ccccc5)c5ccccc5)cc4)s3)nc3c4ccccc4c4ccccc4c32)c2ccccc12`, under “in ClCCl”, the absorption maximum worked out at 308 nm.
For `Cc1cc(-c2ccc(C(C)(C)C)cc2)cc(C)[o+]1`, the absorption maximum (in CC#N) is 345 nm and the absorption maximum (in ClCCl) was found to be 365 nm.
For the setting “in C1CCOC1”, `N#Cc1ccc(C=C(c2ccccc2)c2ccccc2)cc1` registered an absorption maximum of 321 nm.
In turn, `CCOC(=O)c1c(-c2c(Cl)c3cc(C)ccc3oc2=O)nn(-c2cccc(C)c2)c1C(=O)OCC` displayed an absorption maximum (in ClCCl) of 331 nm.
For the compound `C1=C(c2ccccc2)C2=Nc3c(-c4ccccc4)cc4n3[B-]3(Oc5ccccc5C1=[N+]23)Oc1ccccc1-4` (stereo not given), the absorption maximum (in Cc1ccccc1) amounted to 728 nm.
`c1csc(-c2ccc(-c3ccc(-c4cccs4)s3)s2)c1`: the absorption maximum came out at 391 nm (in CCCCCCCCCCCCCC) and 393 nm (in ClCCl).
`COc1ccc(C2=C(c3ccc(F)cc3)C(c3ccccc3)=[N+]3C2=Nc2c(-c4ccc(OC)cc4)c(-c4ccc(F)cc4)c(-c4ccccc4)n2[B-]3(F)F)cc1` displayed an absorption maximum (in Cc1ccccc1) of 653 nm.
Consider `Cc1ccccc1-c1c2ccc(=[N+]3CCOCC3)cc-2oc2cc(N3CCOCC3)ccc12`, for which the absorption maximum (in CCO) is on record as 556 nm and the absorption maximum (in ClCCl) is reported as 554 nm.
Consider `CN(C)c1ccc2nc(-c3ccc(C(=O)OC[C@H](NC(=O)OC(C)(C)C)C(=O)OCc4ccccc4)cc3)sc2c1`, for which the absorption maximum was determined as 390 nm (in C1CCCCC1); 398 nm (in CC#N); 397 nm (in CC(C)O); 397 nm (in CO); 408 nm (in CS(C)=O); 401 nm (in ClC(Cl)Cl). Moreover, under “in c1ccccc1”, the absorption maximum is listed as 397 nm.
For the setting “in ClCCl”, `O=P1(c2ccccc2)C(c2ccc(C(F)(F)F)cc2)=Cc2cc3ccccc3cc21` (stereo not given) showed an absorption maximum of 387 nm.
The same measure, in the same setting: the same measure for `C(=C\c1ccc(-c2ccccc2)cc1)/c1ccc(Oc2ccc3ccccc3c2-c2c(Oc3ccc(/C=C/c4ccc(-c5ccccc5)cc4)cc3)ccc3ccccc23)cc1`: 328 nm; for `FC(F)(F)c1ccc(B2c3ccccc3Nc3ccccc32)c(C(F)(F)F)c1`: 388 nm.
On to `CNc1ccc2c(c1)-c1ccccc1C2=O`, for which the absorption maximum is reported as 389 nm (in C1CCCCC1), 424 nm (in CC#N), 436 nm (in CCO) and 409 nm (in c1ccccc1).
Consider `Cc1cccc(-c2c3ccccc3cc3ccccc23)n1`, for which the absorption maximum (in ClCCl) was 385 nm.
Turning to `CC(C)[Si]1(C(C)C)c2cc(N(C)C)ccc2-c2ccc(C(F)(F)F)cc21`, the absorption maximum by setting is: (in C1CCCCC1) 331 nm; (in CC#N) 337 nm; (in CCO) 335 nm; (in CCOCC) 334 nm; (in CS(C)=O) 344 nm; (in ClCCl) 338 nm. The same compound came in with an absorption maximum (in c1ccccc1) of 338 nm.
For the compound `N#Cc1ccc(-n2c(-c3ccc(-c4ccc(-n5c6ccccc6c6ccccc65)cc4)s3)nc3c4ccccc4c4ccccc4c32)c2ccccc12`, the absorption maximum (in ClCCl) is 301 nm.
The same measure, in the same setting: the same measure for `CCCCCCn1c(=O)c2c3[nH]c4ccccc4oc3c3c(=O)n(CCCCCC)c(=O)c3c2c1=O`: 454 nm.
For the compound `Fc1c(F)c(-n2c3ccccc3c3ccccc32)c(F)c(F)c1-c1nnc(-c2ccccc2)o1`, the absorption maximum (in Cc1ccccc1) is listed as 344 nm.
Regarding `c1ccc2c(-c3cc4c(ccc5sc(-c6cccc7ccccc67)cc54)s3)cccc2c1`, the absorption maximum (in ClCCl) came to 333 nm.
For `Cc1cc(C)c(C2=C3C=C(/C=C/C(=O)OC(C)(C)C)C=[N+]3[B-](F)(F)n3c2ccc3N2CCOCC2)c(C)c1`, the absorption maximum turned out to be 480 nm (in CC#N); 532 nm (in CCCCCC); 485 nm (in CN(C)C=O); 483 nm (in CO); 525 nm (in Cc1ccccc1); 497 nm (in ClCCl).
The compound `COc1cc(C(=O)O)ccc1O` gave an absorption maximum (in C1CCCCC1) of 287.2 nm; an absorption maximum (in C1COCCO1) of 290 nm; an absorption maximum (in CC#N) of 290 nm; an absorption maximum (in CC(C)(C)O) of 291 nm; an absorption maximum (in CC(C)CO) of 292.4 nm; an absorption maximum (in CC(C)O) of 291.6 nm. Moreover, the absorption maximum was 290.5 nm (in CCOC(C)=O); 293.6 nm (in CO); 285 nm and 283.2 nm (in O).
Turning to `CCCCC1(CCCC)c2cc(/C=C/c3ccc(N(c4ccccc4)c4ccccc4)cc3)ccc2-c2cc3c(cc21)-c1ccc(/C=C/c2ccc(N(c4ccccc4)c4ccccc4)cc2)cc1C3(CCCC)CCCC`, the absorption maximum (in Cc1ccccc1) was determined as 413 nm.
As for `CCCCOc1c(C=C2Sc3ccccc3N2C)c(=O)c1=O`, under “in CCO”, the absorption maximum is on record as 442 nm.
Under “in ClCCl”, `CCN(CC)c1ccc2c(c1)oc(=O)c1cc3cnn(-c4ccccc4)c3nc12` had an absorption maximum of 379 nm.
Turning to `COC(=O)c1cc(=O)n(C)c2cc(-c3ccc4c(c3)OCCO4)sc12`, the absorption maximum by setting is: (in CC#N) 398 nm; (in ClCCl) 402 nm.
For the compound `N#C/C(=C\c1ccc(Cl)cc1)c1nc2ccccc2s1`, the absorption maximum runs as follows: (in C1CCCCC1) 350 nm; (in CO) 350 nm.
For `C[Si]1(C)O[Si](C)(C)c2cc3nc4ccccc4c(-c4ccccc4)c3cc2[Si](C)(C)O1`, under “in ClCCl”, the absorption maximum was 368 nm.
Take `CCC1=C(C2=C(C3=C(CC)S(=O)(=O)c4cc(-c5ccc(CO)cc5)ccc43)C(F)(F)C(F)(F)C2(F)F)c2ccc(-c3ccc(CO)cc3)cc2S1(=O)=O`: for the setting “in C1COCCO1”, the absorption maximum was 340 nm.
Regarding `COc1ccc2c(c1)c1cc(OC)ccc1n2-c1ccc2c(c1)-c1cc(-n3c4ccc(OC)cc4c4cc(OC)ccc43)ccc1P2(=O)c1ccccc1`, the absorption maximum (in Cc1ccccc1) came to 369 nm.
`CC(=O)OC[C@@H]1O[C@H](n2cnc3c2N=CN2Cc4c[n+](C)c(C)nc4N=C32)[C@@H](O)[C@H]1O`: the absorption maximum is, setting by setting: (in CC#N) 392 nm; (in CCO) 389 nm; (in O) 383 nm.
For the compound `Clc1ccccc1N1c2sc3ccccc3c2Sc2c1sc1ccccc21`, the absorption maximum (in ClCCl) was found to be 421 nm.
`CN(C)c1ccccc1` gave an absorption maximum (in C1CCCCC1) of 293.94 nm.
